Assay results from US20210260036A1, “METHODS OF TREATMENT FOR ALPHA-1 ANTITRYPSIN DEFICIENCY” (Vertex Pharmaceuticals Incorporated, priority 2020, published 2021).

How the values were obtained:
Z-AAT [1] = target: T1, Z-AAT (Homo sapiens, UniProt P01009, E366K); assay: Z-AAT folding, polymerization and secretion in cell line models; assay type: cell-based; conditions: multiple cell line models
From the text: (§1) 4-[5-(4-fluorophenyl)-6-tetrahydropyran-4-yl-1H-pyrrolo[2,3-f]indazol-7-yl]benzoic acid (Compound I), disclosed in PCT/US2020/032832, filed on May 14, 2020, is being developed as a treatment for AATD. […] Thus, Compound I has the potential to address both the loss-of-function and the gain-of-function aspects of the Z mutation. By restoring physiological levels of circulating AAT activity, Compound I may reduce the risk of lung disease. By preventing Z-polymer formation in the liver, Compound I may reduce the risk of developing progressive liver disease (fibrosis and cirrhosis).

healthy subjects = assay: Phase 1 randomized, double-blinded, placebo-controlled single and multiple-dose study; assay type: in vivo, human; conditions: single and multiple doses
From the text: A randomized, double-blinded, placebo-controlled single and multiple-dose Phase I study evaluating Compound I has been completed in healthy subjects.

Z-AAT [2] = target: T1, Z-AAT; assay: Z-AAT folding and secretion in transgenic mice expressing human Z-AAT; assay type: in vivo; design: expressed in transfected cells; host or cells: transgenic mice expressing human Z-AAT; conditions: transgenic mice engineered to express human Z-AAT
From the text: as §1

T1 sequence (P01009 25-418 E366K): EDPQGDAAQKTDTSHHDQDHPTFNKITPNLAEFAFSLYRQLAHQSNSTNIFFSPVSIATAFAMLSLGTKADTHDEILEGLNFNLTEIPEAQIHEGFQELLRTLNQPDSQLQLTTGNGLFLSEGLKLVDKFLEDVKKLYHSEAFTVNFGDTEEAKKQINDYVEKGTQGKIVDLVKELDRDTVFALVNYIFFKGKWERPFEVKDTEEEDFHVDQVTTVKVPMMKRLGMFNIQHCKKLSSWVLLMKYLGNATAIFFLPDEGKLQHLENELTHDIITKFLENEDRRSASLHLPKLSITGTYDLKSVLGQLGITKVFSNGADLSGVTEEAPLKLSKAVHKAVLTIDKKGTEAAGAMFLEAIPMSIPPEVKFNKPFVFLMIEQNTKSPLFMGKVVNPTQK

## O=C(O)c1ccc(-c2c(C3CCOCC3)n(-c3ccc(F)cc3)c3cc4cn[nH]c4cc23)cc1 [Compound I, 4-[5-(4-fluorophenyl)-6-tetrahydropyran-4-yl-1H-pyrrolo[2,3-f]indazol-7-yl]benzoic acid]
Z-AAT [1]
  folding of Z-AAT: promotes the proper folding of Z-AAT
  intracellular Z-AAT protein polymerization: preventing intracellular Z-AAT protein polymerization
  secretion of functionally active AAT: increasing secretion of functionally active AAT
Healthy subjects
  safety and tolerability: safe and well-tolerated
  serious adverse events: no serious adverse events
Z-AAT [2]
  folding and secretion of functionally active AAT: facilitates proper folding and secretion of functionally active AAT
